These results are taken from PubChem BioAssay AID330 (DTP/NCI, 2004).

“And” between values parts separate entries of the source, which are not always exact repeats. Equal values may be shown once. Inconclusive results and toxic doses are left out.

The test system of the assay is P388 leukemia ip, CD2F1 mice, survival T/C. Description: NCI In Vivo Anticancer Drug Screen. Data for tumor model P388 Leukemia (intraperitoneal) in CD2F1 (CDF1) mice. The settings on record: endpoint: median survival time, higher = longer survival. An outline of the steps:
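Mice carrying the transplanted tumor received test compound or vehicle. Survival was recorded in each group, and the value is the treated-group measurement divided by that of the vehicle-treated control group.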

[1] abbreviates: dose: 100.0 mg/kg/injection, schedule: Q04DX003 (ip), vehicle: Klucel (hydroxypropylcellulose) (HPC).
The mark [2] stands for this setting: dose: 200.0 mg/kg/injection, schedule: Q04DX003 (ip), vehicle: Klucel (hydroxypropylcellulose) (HPC).
Setting [3] is: dose: 400.0 mg/kg/injection, schedule: Q04DX003 (ip), vehicle: Klucel (hydroxypropylcellulose) (HPC).
[4] abbreviates: dose: 50.0 mg/kg/injection, schedule: Q01DX005 (ip), vehicle: Klucel (hydroxypropylcellulose) (HPC).
[5] abbreviates: dose: 100.0 mg/kg/injection, schedule: Q01DX005 (ip), vehicle: Klucel (hydroxypropylcellulose) (HPC).
The mark [6] stands for this setting: dose: 200.0 mg/kg/injection, schedule: Q01DX005 (ip), vehicle: Klucel (hydroxypropylcellulose) (HPC).
Setting [7] is: dose: 50.0 mg/kg/injection, schedule: Q01DX009 (ip), vehicle: saline with Tween-80.
The mark [8] stands for this setting: dose: 100.0 mg/kg/injection, schedule: Q01DX009 (ip), vehicle: saline with Tween-80.
The mark [9] stands for this setting: dose: 200.0 mg/kg/injection, schedule: Q01DX009 (ip), vehicle: saline with Tween-80.
The mark [10] stands for this setting: dose: 12.5 mg/kg/injection, schedule: Q01DX009 (ip), vehicle: saline with Tween-80.
Where [11] appears, read: dose: 50.0 mg/kg/injection, schedule: Q01DX009 (ip), vehicle: saline.
Where [12] appears, read: dose: 100.0 mg/kg/injection, schedule: Q01DX009 (ip), vehicle: saline.
The mark [13] stands for this setting: dose: 200.0 mg/kg/injection, schedule: Q01DX009 (ip), vehicle: saline.

Turning to `Cc1cc2oc(=O)cc(C(=O)O)c2c(=O)o1`, the T/C is 102 % of control under setting [1], 95 % of control under setting [2] and 87 % of control under setting [3].

As for `COc1ccc2[nH]c3c(C)c4cc[n+](C)cc4c(C)c3c2c1`, the T/C runs as follows: (dose: 3.13 mg/kg/injection, schedule: Q01DX009 (ip), vehicle: saline) 153 % of control; (dose: 6.25 mg/kg/injection, schedule: Q01DX009 (ip), vehicle: saline) 100 % of control.

With `COc1cccc(C(O)c2ccncc2)c1OC` (centres undefined), the T/C (dose: 25.0 mg/kg/injection, schedule: Q01DX009 (ip), vehicle: water) is 90 % of control; the T/C (dose: 50.0 mg/kg/injection, schedule: Q01DX009 (ip), vehicle: water) is 90 % of control; the T/C (dose: 100.0 mg/kg/injection, schedule: Q01DX009 (ip), vehicle: water) was 93 % of control; the T/C (dose: 200.0 mg/kg/injection, schedule: Q01DX009 (ip), vehicle: water) was 90 % of control.

As for `N#Cc1c(-c2ccc(Cl)cc2)c(-c2ccc(Cl)cc2)nn(CCOC(=O)CCC(=O)OCCn2nc(-c3ccc(Cl)cc3)c(-c3ccc(Cl)cc3)c(C#N)c2=O)c1=O`, the T/C runs as follows: (dose: 25.0 mg/kg/injection, schedule: Q04DX002 (ip), vehicle: distilled water + Tween-80) 95 % of control; (dose: 50.0 mg/kg/injection, schedule: Q04DX002 (ip), vehicle: distilled water + Tween-80) 89 % of control; (dose: 100.0 mg/kg/injection, schedule: Q04DX002 (ip), vehicle: distilled water + Tween-80) 91 % of control.

`COC(=O)C(CCCCNC(=O)OCc1ccccc1)NC(=O)C(Cc1ccccc1)NC(=O)OC(C)(C)C` (centres undefined): the T/C is, setting by setting: under setting [4], 99 % of control; under setting [5], 97 % of control; under setting [6], 99 % of control.

Take `S=C(c1c(Cl)cccc1Cl)N1CN2CCCN(C2)C1`: the T/C under setting [7] is 111 % of control, the T/C under setting [8] is 98 % of control and the T/C under setting [9] is 101 % of control.

As for `Cc1[nH]c2ccc(Br)cc2c1/C=N/NC(N)=S`, the T/C runs as follows: (dose: 100.0 mg/kg/injection, schedule: Q01DX001 (ip), vehicle: Klucel (hydroxypropylcellulose) (HPC)) 101 % of control; (dose: 200.0 mg/kg/injection, schedule: Q01DX001 (ip), vehicle: Klucel (hydroxypropylcellulose) (HPC)) 97 % of control; (dose: 400.0 mg/kg/injection, schedule: Q01DX001 (ip), vehicle: Klucel (hydroxypropylcellulose) (HPC)) 90 % of control.

Regarding `CC(C)(C)/C=C/N=NNc1cc2ccccc2s1`, the T/C is 100 % of control (dose: 60.0 mg/kg/injection, schedule: Q01DX005 (ip), vehicle: Klucel (hydroxypropylcellulose) (HPC)); 105 % of control (dose: 120.0 mg/kg/injection, schedule: Q01DX005 (ip), vehicle: Klucel (hydroxypropylcellulose) (HPC)); 108 % of control (dose: 240.0 mg/kg/injection, schedule: Q01DX005 (ip), vehicle: Klucel (hydroxypropylcellulose) (HPC)).

Consider `NC(=S)NN=C1/C(=N\O)CCC/C1=N/O`, for which the T/C is 97 % of control (dose: 60.0 mg/kg/injection, schedule: Q01DX005 (ip), vehicle: saline with Tween-80); 97 % of control (dose: 120.0 mg/kg/injection, schedule: Q01DX005 (ip), vehicle: saline with Tween-80); 97 % of control (dose: 240.0 mg/kg/injection, schedule: Q01DX005 (ip), vehicle: saline with Tween-80).

With `CCOP(=S)(N/N=C(\C)c1ccncc1)OCC`, the T/C was 112 % of control under setting [4], 107 % of control under setting [5] and 115 % of control under setting [6].

In the case of `CCOC(=O)c1ccc(NC(=O)Nc2cnccn2)cc1`, the T/C under setting [10] is 92 % of control; the T/C (dose: 25.0 mg/kg/injection, schedule: Q01DX009 (ip), vehicle: saline with Tween-80) is 93 % of control; the T/C under setting [7] was 86 % of control and 91 % of control; the T/C under setting [8] is 95 % of control; the T/C under setting [9] was 90 % of control.

`c1ccc2c(c1)/C(=N/c1nccs1)N/C2=N\c1nccs1`: the T/C (dose: 100.0 mg/kg/injection, schedule: Q04DX003 (ip), vehicle: saline with Tween-80) was 97 % of control; the T/C (dose: 200.0 mg/kg/injection, schedule: Q04DX003 (ip), vehicle: saline with Tween-80) was 93 % of control; the T/C (dose: 400.0 mg/kg/injection, schedule: Q04DX003 (ip), vehicle: saline with Tween-80) was 91 % of control.

As to `Cc1cnc2ccc(O)cc2c1CO`, the T/C is 92 % of control (dose: 100.0 mg/kg/injection, schedule: Q04DX002 (ip), vehicle: saline with Tween-80); 94 % of control (dose: 200.0 mg/kg/injection, schedule: Q04DX002 (ip), vehicle: saline with Tween-80); 93 % of control (dose: 400.0 mg/kg/injection, schedule: Q04DX002 (ip), vehicle: saline with Tween-80).

Regarding `C[CH2][Ge]([CH2]C)[CH2]C.C[CH2][Ge]([CH2]C)[O]C`, the T/C under setting [11] was 106 % of control, the T/C under setting [12] was 92 % of control and the T/C under setting [13] is 92 % of control.

Turning to `Clc1ccc(CN2COc3c(ccc4cccnc34)C2)cc1`, the T/C by setting is: (dose: 50.0 mg/kg/injection, schedule: Q04DX003 (ip), vehicle: Klucel (hydroxypropylcellulose) (HPC)) 101 % of control and 115 % of control; under setting [1], 101 % of control and 105 % of control and 97 % of control; under setting [2], 100 % of control and 103 % of control and 123 % of control; under setting [3], 93 % of control.

For `CCCCCC[N+](C)([O-])CCCCCC[N+](C)([O-])CCCCCC` (centres undefined), the T/C under setting [11] was 107 % of control, the T/C under setting [12] was 101 % of control and the T/C under setting [13] is 97 % of control.

Turning to `CCn1c(=O)c2[nH]c(=S)[nH]c2n(CC)c1=O`, the T/C (dose: 16.0 mg/kg/injection, schedule: Q01DX009 (ip), vehicle: Klucel (hydroxypropylcellulose) (HPC)) is 108 % of control; the T/C (dose: 32.0 mg/kg/injection, schedule: Q01DX009 (ip), vehicle: Klucel (hydroxypropylcellulose) (HPC)) was 104 % of control; the T/C (dose: 50.0 mg/kg/injection, schedule: Q01DX009 (ip), vehicle: Klucel (hydroxypropylcellulose) (HPC)) was 105 % of control; the T/C (dose: 64.0 mg/kg/injection, schedule: Q01DX009 (ip), vehicle: Klucel (hydroxypropylcellulose) (HPC)) is 107 % of control; the T/C (dose: 100.0 mg/kg/injection, schedule: Q01DX009 (ip), vehicle: Klucel (hydroxypropylcellulose) (HPC)) was 95 % of control; the T/C (dose: 200.0 mg/kg/injection, schedule: Q01DX009 (ip), vehicle: Klucel (hydroxypropylcellulose) (HPC)) is 102 % of control.

On to `O=S1(=O)CCC2CCCCC2C1` (centres undefined), for which the T/C reads like this: (dose: 6.25 mg/kg/injection, schedule: Q01DX009 (ip), vehicle: saline with Tween-80) 109 % of control; under setting [10], 100 % of control.

Regarding `O=C(Oc1ccc[nH]c1=O)c1ccc(F)cc1`, the T/C was 99 % of control and 104 % of control under setting [11]; 100 % of control and 101 % of control under setting [12]; 106 % of control and 108 % of control under setting [13]; 111 % of control (dose: 400.0 mg/kg/injection, schedule: Q01DX009 (ip), vehicle: saline).

As for `C/C=C/C=C1\C=Cc2c(C(=O)OC)coc(=O)c21`, the T/C was 107 % of control (dose: 19.5 mg/kg/injection, schedule: Q01DX005 (ip), vehicle: Klucel (hydroxypropylcellulose) (HPC)); 110 % of control (dose: 39.0 mg/kg/injection, schedule: Q01DX005 (ip), vehicle: Klucel (hydroxypropylcellulose) (HPC)); 108 % of control (dose: 78.0 mg/kg/injection, schedule: Q01DX005 (ip), vehicle: Klucel (hydroxypropylcellulose) (HPC)).

For `Cc1ccc(-n2c(=O)[nH]c3ccccc3c2=O)cc1[N+](=O)[O-]`, the T/C reads like this: (dose: 6.25 mg/kg/injection, schedule: Q01DX005 (ip), vehicle: saline with Tween-80) 101 % of control; (dose: 12.5 mg/kg/injection, schedule: Q01DX005 (ip), vehicle: saline with Tween-80) 97 % of control; (dose: 200.0 mg/kg/injection, schedule: Q01DX005 (ip), vehicle: saline with Tween-80) 90 % of control.

Take `C/C(=N\NC(=S)N1CCC(C)CC1)c1ncccn1`: the T/C was 117 % of control (dose: 12.5 mg/kg/injection, schedule: Q04DX003 (ip), vehicle: Klucel (hydroxypropylcellulose) (HPC)) and 91 % of control (dose: 25.0 mg/kg/injection, schedule: Q04DX003 (ip), vehicle: Klucel (hydroxypropylcellulose) (HPC)).

On to `O=C(N=C(Oc1ccccc1)Oc1ccccc1)N=C(Oc1ccccc1)Oc1ccccc1`, for which the T/C is 94 % of control under setting [4], 88 % of control under setting [5] and 91 % of control under setting [6].
